This note sets out measurements from patent US20210236840A1, “COMBINED SONODYNAMIC AND PHOTODYNAMIC THERAPY TO TREAT DEEP SEATED CANCER AND OTHER HYPERPOLIFERATIVE DISEASE AND ULTRASOUND AND LIGHT TRIGGERED RELEASE OF NEAR INFRARED PHOTOSENSITIZERS AND CHEMOTHERAPY AGENTS FROM POLYACRLAMIDE BASED NANOPARTICLES” (Photolitec, LLC, priority 2020, published 2021).

One test concerns U87 Glioma xenografts. Put plainly: In vivo PDT and PDT-SDT combination response. Particulars: PDT alone; SCID mice bearing U87 Glioma xenografts.
Another test relates to U87 tumors. Put plainly: Long-term tumor cure by Photobac-PDT. Particulars: laser light at 787 nm; for CR: 60 days. The test is classed as in vivo, SCID mice. The protocol: Analysis of anticancer efficacy of Photobac was injected in tumor-bearing mice and treated with the laser light at 787 nm. Tumor cure was monitored for 60 days post-laser treatment. […] Photobac is being developed for the treatment of glioblastoma by Photolitec, LLC (a spin-off of RPCI) has received an ORPHAN DRUG STATUS from FDA.
Long-term tumor cure by Photobac-PDT on treating nude mice (female) bearing U87 tumors (shoulder) at variable drug doses. The tumors were exposed with light (787 nm, 135 J/cm^2, 75 mW/cm^2) at 24 h post injection. Comparative long-term cure of Photobac-PDT treatment in both and female SCID mice bearing U87 tumors (shoulder) under similar treatment parameters (drug dose: 0.75 μmol/kg; light dose: 135 J/cm^2, 75 mW/cm^2.

Test [1] deals with Colon 26 tumors and U87 tumors. Put plainly: Photobac-PDT vascular shutdown, CD31 staining of tumor sections. The format is in vivo, BALB/C mice; nude mice. The conditions noted are these: 787 nm, 135 J/cm2, 75 mW/cm2 at 24 h post-injection; 0.25 μmol/kg (Colon 26) or 0.75 μmol/kg (U87).

Regarding `CCCCCCOC(C)c1c(C)c2cc3nc(c4c5[nH]c(cc6nc(cc1[nH]2)C(C)=C6CC)c(C)c5C(=O)C4)[C@@H](CCC(=O)O)[C@@H]3C` (stereo partly drawn) [HPPH, 2-(1-Hexyloxyethyl)-2-devinyl pyropheophorbide-a], the complete response with U87 Glioma xenografts came to 37%.
For `CCCCOC(C)C1=C(C)c2cc3nc(c4c5[nH]c(cc6[nH]c(cc1n2)[C@H](C)[C@H]6CC)c(C)c5C(=O)N(CCCC)C4=O)[C@@H](CCC(=O)OC)[C@@H]3C` (stereo partly drawn) [Photobac, bacteriopurpurinimide], the “mice tumor free up to 60 days” value in the test with U87 tumors (female SCID mice) was 4/5; with U87 tumors (male mice) it was 4/7. The CR was found to be 80% in the test with U87 tumors (female SCID mice) and 60% with U87 tumors (male mice). In test [1], the “vascular effect of PDT” value is listed as “causes vascular shutdown”.
